Experimental data from ChEMBL document CHEMBL1201862, “PubChem BioAssay data set” (2004).
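These data come from cells grown in 96-well plates and exposed to compound for 48 hours at five concentrations. Abbreviation: GI50, concentration required for 50% inhibition of growth.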 The source made the active and inactive calls. No stated cut-off is given here; in the data, active = GI50 up to about 1.1 µM and inactive = higher.

How the values were obtained:
Test in all cases: growth of human tumour cells (NCI), 48 h
MOLT-4 = tested on: MOLT-4
DU-145 = tested on: DU-145
A498 = tested on: A498
HOP-92 = tested on: HOP-92
Hs-578T = tested on: Hs-578T
SK-MEL-28 = tested on: SK-MEL-28
NCI-H522 = tested on: NCI-H522
HCT-15 = tested on: HCT-15
HL-60 = tested on: HL-60
BT-549 = tested on: BT-549
PC-3 = tested on: PC-3
COLO 205 = tested on: COLO 205
SW-620 = tested on: SW-620
NCI-H226 = tested on: NCI-H226
LOX IMVI = tested on: LOX IMVI
OVCAR-8 = tested on: OVCAR-8
MDA-MB-231 = tested on: MDA-MB-231
OVCAR-5 = tested on: OVCAR-5
IGROV-1 = tested on: IGROV-1
T47D = tested on: T47D
KM12 = tested on: KM12
SF-539 = tested on: SF-539
HOP-62 = tested on: HOP-62
NCI-H23 = tested on: NCI-H23
MDA-N = tested on: MDA-N
OVCAR-4 = tested on: OVCAR-4
U-251 = tested on: U-251
HCC 2998 = tested on: HCC 2998
RPMI-8226 = tested on: RPMI-8226
TK-10 = tested on: TK-10
CCRF-CEM = tested on: CCRF-CEM
MCF7 = tested on: MCF7
UACC-62 = tested on: UACC-62
SF-295 = tested on: SF-295
HT-29 = tested on: HT-29
EKVX = tested on: EKVX
UACC-257 = tested on: UACC-257
K562 = tested on: K562
SNB-75 = tested on: SNB-75
Malme-3M = tested on: Malme-3M
SK-MEL-5 = tested on: SK-MEL-5
UO-31 = tested on: UO-31
HCT-116 = tested on: HCT-116
SF-268 = tested on: SF-268
OVCAR-3 = tested on: OVCAR-3
SK-MEL-2 = tested on: SK-MEL-2
NCI-H460 = tested on: NCI-H460
M14 = tested on: M14
NCI/ADR-RES = tested on: NCI/ADR-RES
MDA-MB-435 = tested on: MDA-MB-435
ACHN = tested on: ACHN
SNB-19 = tested on: SNB-19
CAKI-1 = tested on: CAKI-1
A549 = tested on: A549
786-0 = tested on: 786-0
SN12C = tested on: SN12C
SR = tested on: SR
RXF 393 = tested on: RXF 393
SK-OV-3 = tested on: SK-OV-3

For `Cc1ccc(C(=N)Nc2ccccc2)cc1`, the GI50 (MOLT-4) was > 100 µM (inactive), the GI50 (DU-145) was > 100 µM (inactive) and the GI50 (A498) was > 100 µM (inactive). The GI50 (HOP-92) was > 100 µM (inactive), the GI50 (Hs-578T) was > 100 µM (inactive) and the GI50 (SK-MEL-28) was > 100 µM (inactive). For the same molecule, the GI50 (NCI-H522) was > 100 µM (inactive), the GI50 (HCT-15) was greater than 100 µM and the GI50 (HL-60) was > 100 µM (inactive). For the same molecule, the GI50 (BT-549) was > 100 µM (inactive), the GI50 (PC-3) was > 100 µM (inactive) and the GI50 (COLO 205) was 20.9 µM (inactive). The GI50 (SW-620) was > 100 µM (inactive), the GI50 (NCI-H226) was > 100 µM (inactive) and the GI50 (LOX IMVI) was > 100 µM (inactive). For the same molecule, the GI50 (OVCAR-8) was > 100 µM (inactive), the GI50 (MDA-MB-231) was > 100 µM (inactive) and the GI50 (OVCAR-5) was > 100 µM (inactive). For the same molecule, the GI50 (IGROV-1) was > 100 µM (inactive), the GI50 (T47D) was > 100 µM (inactive) and the GI50 (KM12) was > 100 µM (inactive). The GI50 (SF-539) was > 100 µM (inactive), the GI50 (HOP-62) was > 100 µM (inactive) and the GI50 (NCI-H23) was > 100 µM (inactive). For the same molecule, the GI50 (MDA-N) was > 100 µM (inactive), the GI50 (OVCAR-4) was > 100 µM (inactive) and the GI50 (U-251) was > 100 µM (inactive). For the same molecule, the GI50 (HCC 2998) was 8.13 µM (inactive), the GI50 (RPMI-8226) was > 100 µM (inactive) and the GI50 (TK-10) was > 100 µM (inactive). For the same molecule, the GI50 (CCRF-CEM) was 52.2 µM (inactive), the GI50 (MCF7) was 41.9 µM (inactive) and the GI50 (UACC-62) was > 100 µM (inactive). For the same molecule, the GI50 (SF-295) was > 100 µM (inactive), the GI50 (HT-29) was 69.7 µM (inactive) and the GI50 (EKVX) was > 100 µM (inactive). For the same molecule, the GI50 (UACC-257) was 38 µM (inactive), the GI50 (K562) was > 100 µM (inactive) and the GI50 (SNB-75) was > 100 µM (inactive). The GI50 (Malme-3M) was > 100 µM (inactive), the GI50 (SK-MEL-5) was 89.7 µM (inactive) and the GI50 (UO-31) was > 100 µM (inactive). For the same molecule, the GI50 (HCT-116) was > 100 µM (inactive), the GI50 (SF-268) was > 100 µM (inactive) and the GI50 (OVCAR-3) was > 100 µM (inactive). The GI50 (SK-MEL-2) was > 100 µM (inactive), the GI50 (NCI-H460) was > 100 µM (inactive) and the GI50 (M14) was > 100 µM (inactive). The GI50 (NCI/ADR-RES) was > 100 µM (inactive), the GI50 (MDA-MB-435) was > 100 µM (inactive) and the GI50 (ACHN) was > 100 µM (inactive). For the same molecule, the GI50 (SNB-19) was > 100 µM (inactive), the GI50 (CAKI-1) was > 100 µM (inactive) and the GI50 (A549) was > 100 µM (inactive). For the same molecule, the GI50 (786-0) was > 100 µM (inactive), the GI50 (SN12C) was > 100 µM (inactive) and the GI50 (SR) was > 100 µM (inactive). The GI50 (RXF 393) was > 100 µM (inactive) and the GI50 (SK-OV-3) was > 100 µM (inactive).

`NC1CC(=O)c2c(Cl)sc(Cl)c21` (stereo not drawn) was tested, and the GI50 (MOLT-4) was 2.18 µM (inactive), the GI50 (DU-145) was 5.55 µM (inactive) and the GI50 (A498) was 15.3 µM (inactive). The GI50 (HOP-92) was 1.47 µM (inactive), the GI50 (Hs-578T) was 19.2 µM (inactive) and the GI50 (SK-MEL-28) was 1.73 µM (inactive). The GI50 (NCI-H522) was 1.48 µM (inactive), the GI50 (HCT-15) was 1.63 µM and the GI50 (HL-60) was 1.6 µM (inactive). For the same molecule, the GI50 (BT-549) was 3.76 µM (inactive), the GI50 (PC-3) was 6.21 µM (inactive) and the GI50 (COLO 205) was 1.63 µM (inactive). For the same molecule, the GI50 (SW-620) was 1.68 µM (inactive), the GI50 (NCI-H226) was 14.4 µM (inactive) and the GI50 (LOX IMVI) was 1.51 µM (inactive). For the same molecule, the GI50 (OVCAR-8) was 5.46 µM (inactive), the GI50 (MDA-MB-231) was 2.19 µM (inactive) and the GI50 (OVCAR-5) was 19.3 µM (inactive). For the same molecule, the GI50 (IGROV-1) was 4.12 µM (inactive), the GI50 (T47D) was 1.74 µM (inactive) and the GI50 (KM12) was 3.06 µM (inactive). For the same molecule, the GI50 (SF-539) was 2.37 µM (inactive), the GI50 (HOP-62) was 10.7 µM (inactive) and the GI50 (NCI-H23) was 10.5 µM (inactive). For the same molecule, the GI50 (MDA-N) was 4.56 µM (inactive), the GI50 (OVCAR-4) was 6.44 µM (inactive) and the GI50 (U-251) was 3.77 µM (inactive). The GI50 (HCC 2998) was 10.1 µM (inactive), the GI50 (RPMI-8226) was 2.37 µM (inactive) and the GI50 (TK-10) was 2.43 µM (inactive). For the same molecule, the GI50 (CCRF-CEM) was 0.885 µM (active), the GI50 (MCF7) was 1.82 µM (inactive) and the GI50 (UACC-62) was 2.64 µM (inactive). For the same molecule, the GI50 (SF-295) was 14 µM (inactive), the GI50 (HT-29) was 1.72 µM (inactive) and the GI50 (EKVX) was 2 µM (inactive). The GI50 (UACC-257) was 3.16 µM (inactive), the GI50 (K562) was 2.03 µM (inactive) and the GI50 (SNB-75) was 14.1 µM (inactive). For the same molecule, the GI50 (Malme-3M) was 2.22 µM (inactive), the GI50 (SK-MEL-5) was 8.79 µM (inactive) and the GI50 (UO-31) was 9.86 µM (inactive). For the same molecule, the GI50 (HCT-116) was 1.43 µM (inactive), the GI50 (SF-268) was 15.8 µM (inactive) and the GI50 (OVCAR-3) was 6.47 µM (inactive). For the same molecule, the GI50 (SK-MEL-2) was 12.4 µM (inactive), the GI50 (NCI-H460) was 14.5 µM (inactive) and the GI50 (M14) was 3.85 µM (inactive). The GI50 (NCI/ADR-RES) was 15 µM (inactive), the GI50 (MDA-MB-435) was 4.62 µM (inactive) and the GI50 (ACHN) was 2.33 µM (inactive). The GI50 (SNB-19) was 13.2 µM (inactive), the GI50 (CAKI-1) was 2.7 µM (inactive) and the GI50 (A549) was 12.7 µM (inactive). For the same molecule, the GI50 (786-0) was 1.41 µM (inactive), the GI50 (SN12C) was 2.05 µM (inactive) and the GI50 (SR) was 0.493 µM (active). The GI50 (RXF 393) was 1.45 µM (inactive) and the GI50 (SK-OV-3) was 14.4 µM (inactive).
